# Experimental data from PMC12514245, “Impaired migration and lung invasion of human melanoma by a novel small molecule targeting the transmembrane domain of death receptor p75^NTR” (EMBO Molecular Medicine, 2025).
# Values joined by “and” are separate entries in the source; they are usually repeats but may differ in a detail not shown here. Identical values can stand only once. “Also recorded” adds a separate entry of the source. Like-named read-outs stand apart in the source and are kept apart here.
# Legend:
# A875 shp75 cells = assay: Cell viability (Presto Blue), A875 shp75; type: cell-based, human; conditions: for viability at 5 µM: Div17E5 5 uM
# Experimental: To measure the cytotoxic effect of Div17E5, A875 NT or shp75 cells were seeded at 2000 cells per well (in 100 μL DMEM) in a 96-well plate and incubated for 12 h. Next, Div17E5 at various concentrations was added and incubated at 37 °C in 5% CO2 for 2 days. Following treatment, 10 μL Presto Blue® (resazurin, ThermoFIsher) was added to each well of the 96-well plate and incubated for 2 h at 37 °C in 5% CO2. Cellular fluorescence in each well was measured at 535 nm excitation and 615 nm emission using a microtiter plate reader. Data was converted into the relative cell viability (%) from the fluorescence of cells in each treatment relative to that of the DMSO control group (set as 100%).
# [1] = biological target: TMD of TrkB receptor tyrosine kinase (Homo sapiens, UniProt Q16620); assay: 2D NMR chemical shift perturbation, TrkB TMD in bicelles; type: binding; conditions: 4 molar excess compound
# Sequence of TMD of TrkB receptor tyrosine kinase (Q16620 419-466): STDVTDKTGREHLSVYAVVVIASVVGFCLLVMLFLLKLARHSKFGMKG
# [2] = test system: A875-shp75 melanoma xenograft; assay: Melanoma lung invasion assay, A875-shp75, delayed treatment 3 weeks after cell injection; type: in vivo, SCID mice
# Experimental: Finally, we investigated whether delayed administration of Np75-4A22 was able to affect engraftment and growth of metastatic tumors in the lung. To this end, drug treatment (orally at 200 mg/kg) was initiated 3 weeks after intravenous injection of A875-NT or A875-shp75 cells in female SCID mice and continued for additionally 4 weekly cycles (5 days on/2 days off) as above (Fig. 8E). Metastatic spread to the lungs was monitored weekly by bioluminescent imaging of luciferase-expressing melanoma cells. […] We conclude that Np75-4A22 can be efficacious at reducing the spread and seeding of melanoma cells in the lung when administered either before or after cell implantation.
# Eight-week-old female SCID mice (Charles River Laboratories, Shrewsbury, MA, USA) were housed in groups of three to five and maintained on a 12-h light/dark schedule with a temperature of 22 °C ± 1 °C and a relative humidity of 50% ± 5%. Food and water were available ad libitum. This research study was reviewed and approved by the University of Calgary Animal Care Committee (AC22-0054) and McGill University (AUP-JGH-8269) and adheres to established ethical principles and guidelines. A875-GFPLuc (A875-NT) or A875-GFPLuc shp75 (A875-shp75) cells harvested using Puck’s EDTA were resuspended in PBS and injected intravenously into SCID mice (5 × 10^5 cells/200 μl per mouse). Np75-4A22 was dissolved in 0.5% sodium carboxymethyl cellulose (NaCMC) in reverse osmosis H2O and administered by oral gavage at 200 mg/kg/day starting one day prior to intravenous (tail vein) injection of tumor cells and continued for 3 1-week cycles (cycle: 5 days on drug, 2 days off drug). Tumor spread to the lung was monitored weekly by luciferase activity using the Xenogen IVIS-200 Optical in vivo luciferase imaging system as described previously (Lun et al, [2016]) and by immunohistochemistry (IHC) at designated time points. IHC was performed after formalin fixation, paraffin embedding and sectioning of the lungs, using a human-specific mouse polyclonal nucleolin antibody (1:500 dilution) and detected using Dako liquid DAB+ Substrate Chromogen System (Dako: k3468, California, USA) followed by a hematoxylin counterstain (Sigma, Oakville, ON, Canada). Sections were mounted and imaged on an Olympus phase contrast microscope (Olympus Life Science, Tokyo, Japan). For immunofluorescence, sections were stained with anti-human nucleolin and anti-human p75NTR antibodies (1:1000 dilution), subsequently detected with 1:200 dilutions of Alexa Fluor™ 488 Goat anti-Mouse IgG (H + L) Highly Cross-Adsorbed Secondary Antibody and Alexa Fluor™ 568 Goat anti-Rabbit IgG (H + L) Cross-Adsorbed Secondary Antibody. Sections were further stained with DAPI to detect all nuclei. Between each treatment, TBS Automation Wash Buffer (Biocare Medical TWB945M) was employed. Images were taken with LSM800 confocal microscope and ZEN system.
# [3] = type: in vivo; conditions: oral gavage 200 mg/kg daily (5 days on, 2 days off), 3 weeks; female SCID
smiles,measurement,setting,value
Oc1ccc(-c2cncc(Nc3ccc(Br)c(Cl)c3)n2)cc1 [Div17E5],"Cell Viability, n1-n3","A875 shp75 cells; Div17E5 0.5 uM, 2 days",104%
same,"Cell Viability, n1-n3","A875 shp75 cells; Div17E5 1 uM, 2 days",109% and 112%
same,"Cell Viability, n1-n3","A875 shp75 cells; Div17E5 1.5 uM, 2 days",100%
same,"Cell Viability, n1-n3","A875 shp75 cells; Div17E5 2 uM, 2 days",96% and 100%
same,"Cell Viability, n1-n3","A875 shp75 cells; Div17E5 2.5 uM, 2 days",90% and 99%
same,"Cell Viability, n1-n3","A875 shp75 cells; Div17E5 7.5 uM, 2 days",81% and 91%
same,"Cell Viability, n1-n3","A875 shp75 cells; Div17E5 10 uM, 2 days",90% and 78%
same,viability at 0.5 µM,"A875 shp75 cells; Homo sapiens, A875, 48 h, Div17E5 0.5 uM, 2 days, N=3",103%
same,viability at 2 µM,"A875 shp75 cells; Homo sapiens, A875, 48 h, Div17E5 2 uM, 2 days, N=3, read-out: Cell Viability, Mean",101%
same,viability at 2 µM,"A875 shp75 cells; Homo sapiens, A875, 48 h, Div17E5 2 uM, 2 days, read-out: Cell Viability, n1-n3",107%
same,viability at 2.5 µM,"A875 shp75 cells; Homo sapiens, A875, 48 h, Div17E5 2.5 uM, 2 days, N=3, read-out: Cell Viability, Mean",92%
same,viability at 2.5 µM,"A875 shp75 cells; Homo sapiens, A875, 48 h, Div17E5 2.5 uM, 2 days, read-out: Cell Viability, n1-n3",86%
same,viability at 5 µM,"A875 shp75 cells; Homo sapiens, A875, 48 h, 2 days, N=3, read-out: Cell Viability, Mean",93%
same,viability at 5 µM,"A875 shp75 cells; Homo sapiens, A875, 48 h, 2 days, read-out: Cell Viability, n1-n3",101%
same,viability at 7.5 µM,"A875 shp75 cells; Homo sapiens, A875, 48 h, Div17E5 7.5 uM, 2 days, N=3, read-out: Cell Viability, Mean",86%
same,viability at 7.5 µM,"A875 shp75 cells; Homo sapiens, A875, 48 h, Div17E5 7.5 uM, 2 days, read-out: Cell Viability, n1-n3",85%
same,viability at 10 µM,"A875 shp75 cells; Homo sapiens, A875, 48 h, Div17E5 10 uM, 2 days, N=3, read-out: Cell Viability, Mean",84%
same,viability at 10 µM,"A875 shp75 cells; Homo sapiens, A875, 48 h, Div17E5 10 uM, 2 days, read-out: Cell Viability, n1-n3",85%
same,cell viability,A875 shp75 cells; above 10 μM,sensitive
same,cell viability,A875 shp75 cells; doses up to 10 μM,largely refractory
Cc1cccc(-c2cncc(Nc3ccc(Br)c(Cl)c3Cl)n2)c1C [Np75-4A22],"chemical shift perturbations, TrkB TMD",[1],mostly non-specific interaction; also recorded: no or minimal chemical shift perturbations
same,"Average Photons/second/week, wk2","[2]; group average, wk2",9.88E+04 Photons/second
same,"Average Photons/second/week, wk3","[2]; group average, wk3",1.46E+05 Photons/second
same,"Average Photons/second/week, wk4","[2]; group average, wk4",1.10E+05 Photons/second
same,"Average Photons/second/week, wk5","[2]; group average, wk5",2.77E+05 Photons/second
same,"Average Photons/second/week, wk6","[2]; group average, wk6",4.60E+05 Photons/second
same,"Average Photons/second/week, wk7","[2]; group average, wk7",1.10E+06 Photons/second
same,"Photons/second/ mouse/week, wk2","[2]; individual mouse, wk2",1.05E+05 Photons/second and 6.22E+04 Photons/second and 8.27E+04 Photons/second and 9.38E+04 Photons/second and 1.02E+05 Photons/second and 8.99E+04 Photons/second and 1.49E+05 Photons/second and 1.09E+05 Photons/second and 9.56E+04 Photons/second
same,"Photons/second/ mouse/week, wk3","[2]; individual mouse, wk3",1.10E+05 Photons/second and 1.18E+05 Photons/second and 1.42E+05 Photons/second and 1.47E+05 Photons/second and 1.39E+05 Photons/second and 1.86E+05 Photons/second and 1.67E+05 Photons/second and 1.65E+05 Photons/second and 1.36E+05 Photons/second
same,"Photons/second/ mouse/week, wk4","[2]; individual mouse, wk4",1.43E+05 Photons/second and 9.53E+04 Photons/second and 1.42E+05 Photons/second and 1.00E+05 Photons/second and 1.24E+05 Photons/second and 1.66E+05 Photons/second and 4.36E+04 Photons/second and 7.52E+04 Photons/second and 1.02E+05 Photons/second
same,"Photons/second/ mouse/week, wk5","[2]; individual mouse, wk5",1.26E+05 Photons/second and 1.70E+05 Photons/second and 1.58E+05 Photons/second and 1.31E+05 Photons/second and 1.75E+05 Photons/second and 1.89E+05 Photons/second and 1.28E+05 Photons/second and 4.29E+05 Photons/second and 9.90E+05 Photons/second
same,"Photons/second/ mouse/week, wk6","[2]; individual mouse, wk6",2.09E+05 Photons/second and 1.96E+05 Photons/second and 2.02E+05 Photons/second and 2.61E+05 Photons/second and 6.18E+04 Photons/second and 1.19E+05 Photons/second and 3.83E+05 Photons/second and 2.25E+06 Photons/second
same,"Photons/second/ mouse/week, wk7","[2]; individual mouse, wk7",1.96E+05 Photons/second and 1.65E+05 Photons/second and 3.28E+05 Photons/second and 1.98E+06 Photons/second and 3.78E+06 Photons/second
same,"mortality, clinical signs and gross histological pathology",[3],No mortality or adverse clinical signs
